Results reported in patent publication US11878028B1 (HENAN GENUINE BIOTECH CO., LTD., priority 2023, dated 2024).

Legend:
[1] = tested on: human lung cancer NCI-H1975 (EGFRL858R/T790M) cell line; test: Anti-tumor effect of azvudine with doxitinib in NCI-H1975 subcutaneous xenograft mice (Example 2); type: in vivo, BALB/c nude mice; settings: for Tumor volume / Tumor volume on the 20th day: mean ± SEM, azvudine 1 mg/kg, doxitinib […], combination 1 + […]; for Tumor volume: in mm³
Source text: (§1) Animals were kept in IVC (independent ventilation system) cages (4 per cage) in SPF grade animal room. The number of animals in the cage, gender, strain, date of receipt, administration regimen, experiment number, group and date of start of the experiment were indicated on the animal information card for each cage. All cages, bedding and drinking water were sterilized before use. Cages, feed and drinking water were changed twice a week. The breeding environment and light conditions were as follows: • Temperature: 20˜26° C. • Humidity: 40˜70% • Lighting cycle: 12 hours of light, 12 hours of no light (the light was turned on at 8 am and turned off at 8 pm) • Cage: Cages were made of polycarbonate, with a volume of 325 mm×210 mm×180 mm. The bedding was corn cobs, and was changed twice a week. • Food: Experimental animals had free access to food (irradiation sterilized, dry pelleted food) throughout the whole experimental process. • Drinking water: Experimental animals can freely drink sterilized water. • Cage identification: The number of animals in the cage, gender, strain, date of receipt, • administration regimen, experiment number, group and date of start of the experiment should be indicated on the animal information card for each cage. • Animal identification: Experimental animals were identified with ear tags.
NCI-H1975 cells were cultured in RPMI 1640 medium containing 10% fetal bovine serum in a 37° C. and 5% CO2 incubator. The cells were routinely passaged once a week. When the cell saturation reached 80%-90% and the number achieved the requirement, the cells were collected, counted and inoculated.
0.1 mL (5×10^6) of NCI-H1975 cells were subcutaneously inoculated on the right back of each mouse, and the grouping administration was started when the average tumor volume reached about 154 mm 3.
The experimental index was to investigate whether tumor growth was inhibited, delayed or cured. Tumor diameter was measured with a vernier caliper twice a week or every other day. The tumor volume was calculated according to the formula of: V=0.5a×b^2, where a and b represented the long diameter and short diameter of the tumor, respectively.
The anti-tumor efficacy of the compounds was evaluated by TGI (%) or relative tumor proliferation rate T/C (%). TGI (%) reflected the inhibition rate of tumor growth.
Relative tumor proliferation rate T/C (%) was calculated according to the formula as follows: T/C %=TRTV/CRTV×100% (TRTV represented the average RTV of the treatment group; CRTV Represented the Average RTV of the Negative Control Group). Relative Tumor Volume (RTV) was calculated based on the results of measurement of tumor according to the formula of RTV=Vt/V0, where V0 represented the tumor volume measured during grouping administration (i.e. d0), and Vt represented the tumor volume obtained in a certain measurement, and TRTV and CRTV were collected from the data on the same day.
Statistical analysis included mean and standard error (SEM) of tumor volume at each time point for each group (see Table 3 for specific data). […] The comparison between two groups was analyzed by T-test, and the comparison between three or more groups was analyzed by one-way ANOVA. All data analysis was performed with Prism. p<0.05 was considered significant difference.

[2] = tested on: human lung cancer NCI-H1975 (EGFRL858R/T790M) cell line; test: Anti-tumor effect of azvudine with osimertinib in NCI-H1975 subcutaneous xenograft mice (Example 1); type: in vivo, BALB/c nude mice; settings: for Tumor volume on the 28th day of grouping administration: day 28; for Tumor volume on the 28th day of grouping administration / Tumor weight: mean ± standard error; for Tumor weight / Tweight/Cweight: end of experiment; for Tumor weight: combination; for Tweight/Cweight: tumor weight of treatment group / solvent control group
Source text: as §1, with “The breeding environment and light conditions were as follows: • Temperature: 20˜26° C. • Humidity: 40˜70% • Lighting cycle: 12 hours of light, 12 hours of no light (the light was turned on at 8 am and turned off at 8 pm) • Cage: Cages were made of polycarbonate, with a volume of 325 mm×210 mm×180 mm.” left out
When the cell fusion degree of each bottle reached more than 90%, the cells were digested and resuspended in PBS. The cells were counted to reach a concentration of 5×10^7/ml by using a cell counter, and each mouse was injected with 0.1 ml of cell suspension. The 8th generation cells were inoculated subcutaneously in nude mice. When the tumor grew to about 800 mm^3, the tumor was taken out and cut into a size of 2*2*2 mm^3. The chopped tumor was inoculated on the right back of each mouse. When the average volume of the tumor measured after inoculation reached 100-120 mm^3, grouping administration was started using a random stratified grouping method according to the tumor volume and animal body weight. The lung cancer cell line model was randomly divided into 4 experimental groups with 8 mice in each group. The mice were continuously administered for 28 days after grouping.
(Ti: mean tumor volume of the treatment group on the i^th day of administration, T0: mean tumor volume of the treatment group on the 0th day of administration; Vi: mean tumor volume of the solvent control group on the i^th day of administration, V0: mean tumor volume of the solvent control group on the 0th day of administration)
At the end of the experiment, the surviving animals were euthanized, and the tumor tissue was taken, and weighed to obtain the tumor weight.

[3] = based on tumor volume on the 20th day after administration
[4] = azvudine 1 mpk, osimertinib 2.5 mpk, combination 2.5 + 1 mpk
[5] = azvudine 1 mpk, osimertinib 2.5 mpk

Compound | Effect on tumor growth (in words) ([1]; NCI-H1975 xenograft tumor mouse model) | TGI [1, 3] | Tumor volume ([1]; day 0 after administration) | Tumor volume ([1]; day 3 after administration) | Tumor volume ([1]; day 6 after administration) | Tumor volume ([1]; day 10 after administration) | Tumor volume ([1]; day 13 after administration) | Tumor volume ([1]; day 17 after administration) | Tumor volume on the 20th day ([1]; day 20 after administration) | Tumor volume ([1]; day 20 after administration) | Tumor volume ([1]; day 24 after administration) | Effect on tumor proliferation (in words) ([2]; NCI-H1975 tumor-bearing mouse model) | TGITV (tumor volume inhibition rate) ([2]; after 28 days of administration, azvudine 1 mpk, osimertinib 2.5 mpk, combination 2.5 + 1 mpk) | TGITV (tumor volume inhibition rate) ([2]; after 28 days of administration, azvudine 1 mpk, osimertinib 2.5 mpk, combination 2.5 + 1 mpk, listed as azvudine) | Tumor volume on the 28th day of grouping administration [2, 4] | Tumor weight [2, 5] | Tweight/Cweight [2] | TGITV (tumor volume inhibition rate) ([2]; mouse, in vivo) | T/C (relative tumor proliferation rate) [1, 3]
[N-]=[N+]=N[C@]1(CO)O[C@@H](n2ccc(N)nc2=O)[C@@H](F)[C@@H]1O [Azvudine, azvudine] | inhibitory effect on tumor growth in a dose-dependent manner | 54.01% | 154 ± 11 | 252 ± 25 | 447 ± 46 | 614 ± 78 | 774 ± 106 | 1,102 ± 118 | 1,396 ± 162 mm3 | 1,396 ± 162 | 2,382 ± 305 | inhibitory effect on tumor proliferation in a dose-dependent manner | 35.7% | 35.7% | 628.3 ± 165.4 mm^3 | 879.3 ± 226.9 mg | 49.5% | – | –
C=CC(=O)Nc1cc(Nc2nccc(-c3cn(C)c4ccccc34)n2)c(OC)cc1N(C)CCN(C)C [Osimertinib, osimertinib] | – | – | – | – | – | – | – | – | – | – | – | – | – | – | 377.9 ± 90.8 mm^3 | 716.9 ± 207.4 mg | 40.3% | 66.4% | –
doxitinib | – | 87.50% | 154 ± 12 | 180 ± 19 | 232 ± 27 | 277 ± 34 | 350 ± 65 | 395 ± 86 | 492 ± 109 mm3 | 492 ± 109 | 802 ± 220 | – | – | – | – | – | – | – | 15.77%
